In publication PMC2804746 (Biochemistry, 2008):

Columns and labels:
taTrxR (Ta0984) = target: T1, taTrxR (Ta0984) (Thermoplasma acidophilum, UniProt Q9HJI4); assay: X-ray crystal structure, […] Å; assay type: binding; settings: one FAD per monomer, co-purified; crystals at pH 5.5, room temperature
T1 sequence (Q9HJI4 1-319): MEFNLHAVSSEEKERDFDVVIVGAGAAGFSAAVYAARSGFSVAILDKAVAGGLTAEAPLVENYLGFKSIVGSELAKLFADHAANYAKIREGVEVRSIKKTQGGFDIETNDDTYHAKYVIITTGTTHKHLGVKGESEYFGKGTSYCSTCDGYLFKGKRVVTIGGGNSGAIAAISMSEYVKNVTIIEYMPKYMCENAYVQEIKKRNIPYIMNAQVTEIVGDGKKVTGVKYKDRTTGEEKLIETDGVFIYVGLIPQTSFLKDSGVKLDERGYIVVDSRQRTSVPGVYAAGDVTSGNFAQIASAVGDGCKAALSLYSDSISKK

ecTrxR = ecTrxR (Escherichia coli, UniProt P0A9P4); assay: anaerobic titration, reduction of bound FAD by visible spectra; assay type: biochemical; settings: 50 mM TRIS, pH 7.5, 150 mM NaCl, 25 °C
ecTrxR, sequence (P0A9P4 2-321): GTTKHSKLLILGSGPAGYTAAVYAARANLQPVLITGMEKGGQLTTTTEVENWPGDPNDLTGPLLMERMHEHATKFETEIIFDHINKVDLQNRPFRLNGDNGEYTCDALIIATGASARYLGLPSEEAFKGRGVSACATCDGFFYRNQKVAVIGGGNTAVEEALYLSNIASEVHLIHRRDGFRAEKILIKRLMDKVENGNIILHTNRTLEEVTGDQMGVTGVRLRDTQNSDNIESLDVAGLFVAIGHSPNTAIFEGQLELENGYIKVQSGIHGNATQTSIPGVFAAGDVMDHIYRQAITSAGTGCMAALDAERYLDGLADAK

Compound | X-ray crystal structure, 2.35 Å; visible absorption spectrum (taTrxR (Ta0984)) | anaerobic titration, reduction of bound FAD by visible spectra (ecTrxR)
Cc1cc2nc3c(=O)[nH]c(=O)nc-3n(C[C@H](O)[C@H](O)[C@H](O)COP(=O)(O)OP(=O)(O)OC[C@H]3O[C@@H](n4cnc5c(N)ncnc54)[C@H](O)[C@@H]3O)c2cc1C [FAD] | The taTrxR structure has one FAD molecule bound in a similar conformation as the ecTrxR structure | 
NC(=O)C1=CN([C@@H]2O[C@H](COP(=O)(O)OP(=O)(O)OC[C@H]3O[C@@H](n4cnc5c(N)ncnc54)[C@H](O)[C@@H]3O)[C@@H](O)[C@H]2O)C=CC1 [NADH] |  | NADH does reduce the flavin to some extent in this protein
NC(=O)C1=CN([C@@H]2O[C@H](COP(=O)(O)OP(=O)(O)OC[C@H]3O[C@@H](n4cnc5c(N)ncnc54)[C@H](OP(=O)(O)O)[C@@H]3O)[C@@H](O)[C@H]2O)C=CC1 [NADPH] |  | titration of ecTrxR with NADPH results in a rapid reduction of the bound FAD
